Like-named read-outs stand apart in the source and are kept apart here.
Columns and labels:
EV71 [1] = assay: microbe, parasite or virus in culture; settings: for EC50: Enterovirus A, EV71, HEK293
Procedure: (§1) To further examine the functional effects, we selected EV71 to perform the antiviral analysis. […] CC50 is the median cytotoxic concentration measured with the MTT assay.
(§2) RD cells were cultured in DMEM and up to 70%–80% confluence in 96-well plates. Compounds were added into the culture medium for 1 h prior to virus infection using four wells for each concentration used. The compounds were added at the following concentrations: 1.25, 2.5, 5, 10, 20, 40 μM. Then cells were infected withEV71 (a clinical strain denoted as EV71-BC08, GU475127) at a multiplicity of infection (MOI) of 1. Virus controls (untreated wells of infected cells), cell controls (cells and drugs only, using the same dilution range for each compound as the test wells) were included on the plate. The cytopathic effect (CPE) were examined at every 12 h intervals post-infection by using phase-contrast microscopy. […] The cytotoxicity (CC50) was assayed by the MTT method.

EV71 [2] = assay: microbe, parasite or virus in culture; settings: for EC50: Enterovirus A, EV71, RD
Procedure: as §1, §2

phosphorylated MEK1 = phosphorylated MEK1 (Homo sapiens, UniProt Q02750); assay: MEK1 binding assay (HTRF, tracer displacement); settings: for inhibition at 2 µM: read-out: % binding (2 µM); for inhibition at 20 µM: read-out: % binding (20 µM)
phosphorylated MEK1, sequence (Q02750 whole entry): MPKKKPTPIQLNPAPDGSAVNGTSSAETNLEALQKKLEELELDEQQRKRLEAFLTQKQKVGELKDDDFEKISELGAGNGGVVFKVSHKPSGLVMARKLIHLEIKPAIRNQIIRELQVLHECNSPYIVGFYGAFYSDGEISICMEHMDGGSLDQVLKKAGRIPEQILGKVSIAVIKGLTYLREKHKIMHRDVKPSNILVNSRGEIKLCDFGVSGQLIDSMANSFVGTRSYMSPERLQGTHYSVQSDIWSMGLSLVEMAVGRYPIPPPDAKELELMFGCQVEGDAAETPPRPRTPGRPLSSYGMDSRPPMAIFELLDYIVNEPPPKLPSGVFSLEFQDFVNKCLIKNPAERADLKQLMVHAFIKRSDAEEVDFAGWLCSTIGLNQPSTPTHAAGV
In short: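 5 nM GST-tagged phosphorylated MEK1, 2 nM Eu anti-GST antibody and 20 nM kinase tracer 236 incubated with compound 30 min at room temperature in the dark.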

ERK pathway = assay: cells; assay type: cell-based, Human; settings: for IC50: Homo sapiens, HEK293
Procedure: The effects of the inhibitors on the activation of ERK pathway were determined in TPA (12-O-tetradecanoylphorbol-13-acetate)-stimulated cells using the AP-1 luciferase reporter gene assay system. Activating protein-1 (AP-1) is the nuclear transcription factor which is a heterodimeric protein downstream of MAPK composed of dimers of the Fos and Jun proteins. The stable AP-1 dimers bind to DNA recognition elements (AP-1 response elements) and mediate transcriptional induction. AP-1 controls a number of cellular events including differentiation, proliferation and apoptosis. Simultaneously, the expression of AP-1 can be regulated in response to different extracellular stimuli, such as cytokines, growth factors, stress, and bacterial and viral infections. ERK pathway is the most important mediator which is closely related to these responses. Activation of ERK pathway causes induction of fos gene, and then the product heterodimerizes with the Jun protein to form the AP-1 dimers. These newly formed heterodimers can enhance the expression of c-jun through AP-1 binding sites in the c-jun promoter. TPA can increase levels of AP-1 proteins through activation of the ERK pathway.
3.4.2. AP-1 Luciferase Reporter Gene Assay
pAP1-Luc was constructed with pGL3-basic (Promega, Madison, WI. USA) and a fragment including the AP-1 response element (2× TRE) and T7 promoter. HEK 293 cells in 96-well plates were cultured at 5% CO2 at 37 °C in DMEM containing 10% FBS. When the confluence was up to 80%, cells were transinfected with pAP1-Luc using lipofectamine 2000 (Life Technologies, Carlsbad, CA. USA). At 24 h post transinfection, individual compounds with different concentrations (5, 10, 20, 30 μM) were added into cells using three wells for each concentration used. After incubation for 1 h, TPA (50 nM) was added. The cells were harvested after 4 h and luciferase activity was measured by using luciferase assay kit (Promega) with a luminometer.

[3] = tested on: unphosphorylated human MEK1; parameters: method as in PMID 16199156; settings: inhibition of activation of unphosphorylated human MEK1; cited from earlier work
[4] = HTRF binding to GST tagged phosphorylated MEK1, read-out: IC50

SMILES	TI (CC50/IC50) (EV71 [1])	EC50 (EV71 [1])	TI (CC50/IC50) (EV71 [2])	EC50 (EV71 [2])	melting point	IC50 (phosphorylated MEK1)	inhibition at 2 µM (phosphorylated MEK1)	inhibition at 20 µM (phosphorylated MEK1)	inhibition of ERK pathway activation (in words) (ERK pathway)	IC50 (ERK pathway)	binding affinity (in words) (phosphorylated MEK1)	IC50 (phosphorylated MEK1; [4])	IC50 [3]
Cc1c(Cc2ccccc2)c(=O)oc2cc(OC(=O)N(C)C)ccc12 [Compound 13, 3-Benzyl-4-methyl-2-oxo-2H-chromen-7-yl dimethylcarbamate]	29.85	3.29 µM	60.8	2.5 µM	130 to 133 °C	0.223 µM	75.6%	95.2%	more efficiently than U0126	5.4 ± 1.26 µM			
Cc1c(Cc2ccc(F)cc2)c(=O)oc2cc(OC(=O)N(C)C)ccc12 [Compound 17, 3-(4-Fluorobenzyl)-4-methyl-2-oxo-2H-chromen-7-yl dimethylcarbamate]			16.36	5.25 µM	149 to 150 °C	0.408 µM	71.6%	82.1%	more efficiently than U0126	4.06 ± 3.26 µM			
CCc1c(Cc2ccc(F)cc2)c(=O)oc2cc(OC(=O)N(C)C)ccc12 [Compound 18, 4-Ethyl-3-(4-fluorobenzyl)-2-oxo-2H-chromen-7-yl dimethylcarbamate]	3.37	19.4 µM	7.29	10 µM		0.0546 µM	98.2%	99.4%	more efficiently than U0126	23.4 ± 1.11 µM	active		
CCCc1c(Cc2ccc(F)cc2)c(=O)oc2cc(OC(=O)N(C)C)ccc12 [Compound 19, 3-(4-Fluorobenzyl)-2-oxo-4-propyl-2H-chromen-7-yl dimethylcarbamate]	65.24	4.85 µM	190	3.98 µM	82 to 84 °C	0.158 µM	66.2%	87.6%	more efficiently than U0126	4.31 ± 2.14 µM			
CCCc1c(Cc2ccc(F)cc2)c(=O)oc2cc(OC(C)=O)ccc12 [Compound 33, 3-(4-Fluorobenzyl)-2-oxo-4-propyl-2H-chromen-7-yl acetate]		12.8 µM		18.5 µM	150 to 151 °C		61.4%	72.2%	more efficiently than U0126	11.6 ± 1.2 µM		0.252 µM	
CCC(=O)Oc1ccc2c(C)c(Cc3ccc(F)cc3)c(=O)oc2c1 [Compound 38, 3-(4-Fluorobenzyl)-4-methyl-2-oxo-2H-chromen-7-yl propionate]					115 to 116 °C		75.7%	90.8%		38.1 ± 1.26 µM		0.19 µM	
CCCc1c(Cc2ccc(F)cc2)c(=O)oc2cc(OC(=O)CC)ccc12 [Compound 40, 3-(4-Fluorobenzyl)-2-oxo-4-propyl-2H-chromen-7-yl propionate]					94 to 95 °C		72.2%	78.5%		87.5 ± 1.98 µM		0.176 µM	
CCCC(=O)Oc1ccc2c(C)c(Cc3ccccc3)c(=O)oc2c1 [Compound 42, 3-Benzyl-4-methyl-2-oxo-2H-chromen-7-yl butyrate]					139 to 140 °C		53.8%	68.4%		88.7 ± 2.52 µM		0.353 µM	
CCCC(=O)Oc1ccc2c(CC)c(Cc3ccccc3)c(=O)oc2c1 [Compound 43, 3-Benzyl-4-ethyl-2-oxo-2H-chromen-7-yl butyrateen-7-yl propionate]					102 °C		45%	54.7%		85.9 ± 1.46 µM		0.473 µM	
CCc1c(Cc2ccc(F)cc2)c(=O)oc2cc(OC(=O)c3ccccc3)ccc12 [Compound 67, 4-Ethyl-3-(4-fluorobenzyl)-2-oxo-2H-chromen-7-yl benzoate]					70 to 71 °C		44.6%	21.3%		64.6 ± 1.74 µM	inactive		
Cc1c(Cc2ccc(F)cc2)c(=O)oc2cc(OC(=O)N(C)C)ccc12 [Compound G8935]													0.3 µM
